Measured values as given in US12629374B2, “Antimalarial agents” (Merck Sharp & Dohme LLC, priority 2020, dated 2026).

system: ring stage parasites; assay: Parasite growth potency assay, 72 hours, LDH readout; format: cell-based; details: 72 h, parasite growth measured by LDH assay after 72 hours at 37° C.; 0.7% rings, 2% haematocrit; read-out: EC50
In short: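 Parasite growth was quantified by LDH assay after a −80 °C freeze-thaw. Before that, compound was incubated for 72 h at 37 °C under humidified gas with ring-stage cultures adjusted to 0.7% parasitemia and 2% haematocrit in serum- and albumax-supplemented RPMI-Hepes.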

SMILES | EC50
CCC1(CC)CC(=O)N(Cc2cccc(C(=O)N[C@@H]3c4ccccc4C(F)(F)C3O)c2)C(=N)N1 (stereo in doubt) [Example 190, [1-[[3-[(3,3-difluoro-2-hydroxy-indan-1-yl)carbamoyl]phenyl]methyl]-4,4-diethyl-6-oxo-hexahydropyrimidin-2-ylidene]ammonium; 2,2,2-trifluoroacetate] | 6.6 nM
CC1(C)CC(=O)N(Cc2cc(F)cc(C(=O)N[C@@H]3c4cc(F)ccc4OC(C)(C)[C@H]3O)c2)C(=N)N1 (stereo in doubt) [Example 197, [1-[[3-fluoro-5-[(6-fluoro-3-hydroxy-2,2-dimethyl-chroman-4-yl)carbamoyl]phenyl]methyl]-4,4-dimethyl-6-oxo-hexahydropyrimidin-2-ylidene]ammonium; 2,2,2-trifluoroacetate] | 3.4 nM
CCC1(CC)CC(=O)N(Cc2cccc(C(=O)N[C@@H]3c4cc(F)ccc4C[C@H]3O)c2)C(=N)N1 (stereo in doubt) [Example 199, [4,4-diethyl-1-[[3-[(6-fluoro-2-hydroxy-indan-1-yl)carbamoyl]phenyl]methyl]-6-oxo-hexahydropyrimidin-2-ylidene]ammonium; 2,2,2-trifluoroacetate] | 6.2 nM
C#CCC[C@H](c1cccc(C(=O)NC2CC3(CCC3)Oc3ccccc32)c1)N1C(=N)NC(CC)(CC)CC1=O (stereo in doubt) [Example 211A, [4,4-diethyl-6-oxo-1-[(1R)-1-[3-[[(4S)-spiro[chromane-2,1′-cyclobutane]-4-yl]carbamoyl]phenyl]pent-4-ynyl]hexahydropyrimidin-2-ylidene]ammonium; 2,2,2-trifluoroacetate] | 25 nM
CCC[C@H](c1cccc(C(=O)N[C@@H]2CC3(CCC3)Oc3ccccc32)c1)N1C(=N)NC(CC)(CC)CC1=O (stereo in doubt) [Example 212A, [4,4-diethyl-6-oxo-1-[(1R)-1-[3-[[(4S)-spiro[chromane-2,1′-cyclobutane]-4-yl]carbamoyl]phenyl]butyl]hexahydropyrimidin-2-ylidene]ammonium; 2,2,2-trifluoroacetate] | 8 nM
CCC[C@H](c1cccc(C(=O)N[C@H]2CC3(CCC3)Oc3ccccc32)c1)N1C(=N)NC(CC)(CC)CC1=O (stereo in doubt) [Example 212B, [4,4-diethyl-6-oxo-1-[(1R)-1-[3-[[(4R)-spiro[chromane-2,1′-cyclobutane]-4-yl]carbamoyl]phenyl]butyl]hexahydropyrimidin-2-ylidene]ammonium; 2,2,2-trifluoroacetate] | 0.9 nM
CCC1(CC)CC(=O)N(Cc2cccc(C(=O)N[C@H]3CCOc4ccc(Cl)cc43)c2)C(=N)N1 (stereo in doubt) [Example 215B, N-(6-chlorochroman-4-yl)-3-[(4,4-diethyl-2-imino-6-oxo-hexahydropyrimidin-1-yl)methyl]benzamide] | 3.7 nM
CCC1(CC)CC(=O)N(Cc2cccc(C(=O)N[C@@H]3c4ccccc4OCC3(C)C)c2)C(=N)N1 (stereo in doubt) [Example 216, 3-[(4,4-diethyl-2-imino-6-oxo-hexahydropyrimidin-1-yl)methyl]-N-(3,3-dimethylchroman-4-yl)benzamide] | 0.5 nM
CCC1(CC)CC(=O)N(Cc2cccc(C(=O)N[C@H]3CCOc4ccc(C)cc43)c2)C(=N)N1 (stereo in doubt) [Example 217, 3-[(4,4-diethyl-2-imino-6-oxo-hexahydropyrimidin-1-yl)methyl]-N-(6-methylchroman-4-yl)benzamide] | 10 nM
CCC1(CC)CC(=O)N(Cc2cccc(C(=O)N[C@H]3CCOc4ccc(Br)cc43)c2)C(=N)N1 (stereo in doubt) [Example 219, [1-[[3-[(6-bromochroman-4-yl)carbamoyl]phenyl]methyl]-4,4-diethyl-6-oxo-hexahydropyrimidin-2-ylidene]ammonium; 2,2,2-trifluoroacetate] | 6.6 nM
CCC1(CC)CC(=O)N([C@H](CCOC)c2cc(F)cc(C(=O)NC3CCCOc4ccccc43)c2)C(=N)N1 (stereo in doubt) [Example 220, [4,4-diethyl-1-[1-[3-fluoro-5-(2,3,4,5-tetrahydro-1-benzoxepin-5-ylcarbamoyl)phenyl]-3-methoxy-propyl]-6-oxo-hexahydropyrimidin-2-ylidene]ammonium; 2,2,2-trifluoroacetate] | 2.4 nM
C#CCCC(c1cccc(C(=O)N[C@@H]2c3ccccc3C[C@H]2O)c1)N1C(=N)NC(CC)(CC)CC1=O (stereo in doubt) [Example 221, 3-[(1S)-1-(4,4-diethyl-2-imino-6-oxo-hexahydropyrimidin-1-yl)pent-4-ynyl]-N-[(1R,2R)-2-hydroxyindan-1-yl]benzamide] | 35.4 nM
CCC1(CC)CC(=O)N(Cc2cccc(C(=O)N[C@@H]3c4ccccc4OC(C)(C)[C@H]3O)c2)C(=N)N1 [Example 1, 3-((4,4-diethyl-2-imino-6-oxotetrahydropyrimidin-1(2H)-yl)methyl)-N-((3S,4R)-3-hydroxy-2,2-dimethylchroman-4-yl)benzamide] | 0.8 nM
CCC1(CC)CC(=O)N([C@H](CCOC)c2cccc(C(=O)N[C@@H]3c4ccccc4C[C@H]3O)c2)C(=N)N1 [Example 2, 3-((R)-1-(4,4-diethyl-2-imino-6-oxotetrahydropyrimidin-1(2H)-yl)-3-methoxypropyl)-N-((1R,2R)-2-hydroxy-2,3-dihydro-1H-inden-1-yl)benzamide] | 1.3 nM
CC(C)[C@]1(C)CC(=O)N(Cc2cccc(C(=O)N[C@H]3CCOc4ccccc43)c2)C(=N)N1 [Example 3, [(4S)-1-[[3-[[(4S)-chroman-4-yl]carbamoyl]phenyl]methyl]-4-isopropyl-4-methyl-6-oxo-hexahydropyrimidin-2-ylidene]ammonium; 2,2,2-trifluoroacetate] | 6.2 nM

same assay, conditions: parasite growth measured by LDH assay after 72 hours at 37° C.; 0.7% rings, 2% haematocrit; trifluoroacetate; read-out: EC50

SMILES | EC50
C#CCC[C@H](c1cccc(C(=O)NC2CC3(CCC3)Oc3ccccc32)c1)N1C(=N)NC(CC)(CC)CC1=O (stereo in doubt) [Example 211B, [4,4-diethyl-6-oxo-1-[(1R)-1-[3-[[(4R)-spiro[chromane-2,1′-cyclobutane]-4-yl]carbamoyl]phenyl]pent-4-ynyl]hexahydropyrimidin-2-ylidene]ammonium; 2,2,2-trifluoroacetate] | 0.5 nM
C#CCC[C@@H](c1cccc(C(=O)N[C@@H]2CC3(CCC3)Oc3ccccc32)c1)N1C(=N)NC(CC)(CC)CC1=O (stereo in doubt) [Example 213, [4,4-diethyl-6-oxo-1-[(S)-1-[3-[[(4R)-spiro[chromane-2,1′-cyclobutane]-4-yl]carbamoyl]phenyl]pent-4-ynyl]hexahydropyrimidin-2-ylidene]ammonium; 2,2,2-trifluoroacetate] | 28.6 nM
CCC1(CC)CC(=O)N(Cc2cccc(C(=O)N[C@H]3CC(c4ccccc4)Oc4ccccc43)c2)C(=N)N1 (stereo in doubt) [Example 218A, [4,4-diethyl-6-oxo-1-[[3-[(2-phenylchroman-4-yl)carbamoyl]phenyl]methyl]hexa-hydropyrimidin-2-ylidene]ammonium; 2,2,2-trifluoroacetate] | 55 nM
CCC1(CC)CC(=O)N(Cc2cccc(C(=O)N[C@H]3CC(c4ccccc4)Oc4ccccc43)c2)C(=N)N1 (stereo in doubt) [Example 218B, [4,4-diethyl-6-oxo-1-[[3-[(2-phenylchroman-4-yl)carbamoyl]phenyl]methyl]hexa-hydropyrimidin-2-ylidene]ammonium; 2,2,2-trifluoroacetate] | 1.1 nM
